Measured values published in patent publication US20240199623A1 (ILDONG PHARMACEUTICAL CO., LTD., priority 2020, published 2024).

Each compound was assayed against human wild type-CFTR (Homo sapiens, UniProt P13569) (assay: Cell-based YFP assay). Details: CHO-K1 cells expressing human wild type-CFTR and YFP-H148Q/I152L; forskolin 20 μM = 100% activity; read-out: Cell-based YFP Assay (EC50) Concentration Range.
Set-up: expressed in transfected cells; host or cells: CHO-K1 (Chinese hamster ovary)
Experimental: Forskolin (Tocris cat. #1099), Dimethyl sulfoxide (Sigma cat. #D4540), FLUO star Omega microplate reader (BMG Labtech, Ortenberg, Germany), MARS Data Analysis Software (BMG Labtech), GraphPad Prism 5 (GraphPad Software, Inc.) Chinese hamster ovary (CHO-K1) cells expressing human wild type-CFTR and halide sensor YFP-H148Q/I152L were constructed and grown in Dulbecco's modified Eagle's medium (DMEM) supplemented with 10% FBS, 2 mM glutamine, 100 units/ml penicillin and 100 μg/ml streptomycin. Chinese hamster ovary (CHO-K1) cells expressing human wild type-CFTR and halide sensor YFP-H148Q/I152L were seeded in 96-well microplate with 2×10^4 cells/well and incubated in 37° C., 48 hours. Then, each well was washed 3 times with PBS and 100 μL PBS was added in each well. […] YFP fluorescence signal affected by I^− ion influx through CFTR channel was measured in 37° C., FLUO star Omega microplate reader according to the following steps: • i) basal 2 seconds; • ii) 140 mM I^− solution 100 μL addition to each well; • iii) YFP fluorescence signal measurement start after 6 seconds; and • iv) following 14 seconds signal detection in every 0.4 seconds periods. […] Experiments were performed in triplicates and the data was averaged. EC50 values were calculated with MARS Data Analysis Software (BMG Labtech) and GraphPad Prism 5.

human wild type-CFTR, sequence (P13569 whole entry): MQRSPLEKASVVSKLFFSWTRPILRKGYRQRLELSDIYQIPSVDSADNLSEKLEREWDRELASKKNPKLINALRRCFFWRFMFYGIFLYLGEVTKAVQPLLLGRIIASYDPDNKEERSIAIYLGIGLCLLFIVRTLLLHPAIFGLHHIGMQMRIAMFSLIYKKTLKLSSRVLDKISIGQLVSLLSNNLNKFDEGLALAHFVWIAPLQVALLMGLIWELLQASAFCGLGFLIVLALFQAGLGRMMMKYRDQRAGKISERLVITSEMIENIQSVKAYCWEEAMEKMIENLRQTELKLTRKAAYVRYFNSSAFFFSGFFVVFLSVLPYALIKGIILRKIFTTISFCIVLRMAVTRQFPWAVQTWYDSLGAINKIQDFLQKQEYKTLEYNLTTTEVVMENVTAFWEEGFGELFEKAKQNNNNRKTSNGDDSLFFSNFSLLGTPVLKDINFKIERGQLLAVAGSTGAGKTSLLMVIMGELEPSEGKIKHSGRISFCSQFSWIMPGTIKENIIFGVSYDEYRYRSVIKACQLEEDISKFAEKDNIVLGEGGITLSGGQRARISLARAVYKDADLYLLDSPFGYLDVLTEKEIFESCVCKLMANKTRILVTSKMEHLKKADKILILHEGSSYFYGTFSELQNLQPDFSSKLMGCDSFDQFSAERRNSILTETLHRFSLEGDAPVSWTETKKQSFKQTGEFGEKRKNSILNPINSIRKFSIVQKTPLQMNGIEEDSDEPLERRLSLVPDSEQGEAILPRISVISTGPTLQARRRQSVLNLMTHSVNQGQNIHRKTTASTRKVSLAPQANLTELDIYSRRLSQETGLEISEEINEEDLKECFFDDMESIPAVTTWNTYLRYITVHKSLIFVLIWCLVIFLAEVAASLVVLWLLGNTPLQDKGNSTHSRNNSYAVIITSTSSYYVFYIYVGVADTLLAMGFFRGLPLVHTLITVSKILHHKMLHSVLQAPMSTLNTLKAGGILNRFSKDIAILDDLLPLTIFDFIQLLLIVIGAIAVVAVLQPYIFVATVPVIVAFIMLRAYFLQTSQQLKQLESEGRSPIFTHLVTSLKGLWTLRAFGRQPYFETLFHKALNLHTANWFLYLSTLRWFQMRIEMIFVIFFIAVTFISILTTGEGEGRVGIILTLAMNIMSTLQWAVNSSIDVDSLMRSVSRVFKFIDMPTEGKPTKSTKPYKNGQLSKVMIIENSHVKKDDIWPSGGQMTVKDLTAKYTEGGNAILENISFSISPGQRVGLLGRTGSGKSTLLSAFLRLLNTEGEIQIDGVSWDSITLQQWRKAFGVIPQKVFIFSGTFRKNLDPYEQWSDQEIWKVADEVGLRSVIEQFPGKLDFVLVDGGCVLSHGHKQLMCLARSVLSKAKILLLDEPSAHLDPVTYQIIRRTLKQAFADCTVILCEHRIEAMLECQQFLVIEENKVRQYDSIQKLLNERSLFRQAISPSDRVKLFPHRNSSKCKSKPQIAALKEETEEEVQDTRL

EC50 [nM]	Compound
≥ 2000	COc1ccc(-c2ccnc3cc(C(=O)N4CC[C@H](O)C4)nn23)cc1OC [Compound 148, (S)-(7-(3,4-dimethoxyphenyl)pyrazolo[1,5-a]pyrimidin-2-yl)(3-hydroxypyrrolidin-1-yl)methanone]
≥ 2000	COc1ccc(-c2ccnc3cc(C(=O)N4CC[C@@H](O)C4)nn23)cc1OC [Compound 150, (R)-(7-(3,4-dimethoxyphenyl)pyrazolo[1,5-a]pyrimidin-2-yl)(3-hydroxypyrrolidin-1-yl)methanone]
200 to 2000	COc1ccc(-c2ccnc3cc(C(=O)N4CCN(c5ccccc5)CC4)nn23)cc1OC [Compound 152, (7-(3,4-dimethoxyphenyl)pyrazolo[1,5-a]pyrimidin-2-yl)(4-phenylpiperazin-1-yl)methanone]
200 to 2000	COc1ccc(-c2ccnc3cc(C(=O)N4CCN(c5ccccn5)CC4)nn23)cc1OC [Compound 153, (7-(3,4-dimethoxyphenyl)pyrazolo[1,5-a]pyrimidin-2-yl)(4-(pyridin-2-yl)piperazin-1-yl)methanone]
200 to 2000	COc1ccc(-c2ccnc3cc(C(=O)N4CCN(Cc5ccccc5)CC4)nn23)cc1OC [Compound 154, (4-benzylpiperazin-1-yl) (7-(3,4-dimethoxyphenyl)pyrazolo [1,5-a]pyrimidin-2-yl)methanone]
≥ 2000	COc1ccc(-c2ccnc3cc(C(=O)N4CCc5ccc(C(=O)O)cc5C4)nn23)cc1OC [Compound 155, 2-(7-(3,4-dimethoxyphenyl)pyrazolo[1,5-a]pyrimidine-2-carbonyl)-1,2,3,4-tetrahydroisoquinoline-7-carboxylic acid]
≥ 2000	COc1ccc(-c2ccnc3cc(C(=O)Nc4ccc(C(=O)OCCCN5CCOCC5)c(Cl)c4)nn23)cc1OC [Compound 162, 3-morpholinopropyl 2-chloro-4-(7-(3,4-dimethoxyphenyl)pyrazolo [1,5-a]pyrimidine-2-carboxamido)benzoate]
< 200	COc1ccc(-c2ccnc3cc(C(=O)Nc4ccc(OC(=O)[C@@H](NC(=O)OCc5ccccc5)C(C)C)cc4)nn23)cc1OC [Compound 171, 4-(7-(3,4-dimethoxyphenyl)pyrazolo[1,5-a]pyrimidine-2-carboxamido)phenyl ((benzyloxy)carbonyl)-L-valinate]
< 200	COc1ccc(-c2ccnc3cc(C(=O)Nc4ccc(OC(=O)[C@@H](N)C(C)C)cc4)nn23)cc1OC [Compound 172, 4-(7-(3,4-dimethoxyphenyl)pyrazolo[1,5-a]pyrimidine-2-carboxamido) phenyl L-valinate]
< 200	COc1ccc(-c2ccnc3cc(C(=O)Nc4ccc(C(=O)NCCCN5CCOCC5)cc4)nn23)cc1OC [Compound 173, 7-(3,4-dimethoxyphenyl)-N-(4-((3-morpholinopropyl)carbamoyl)phenyl)pyrazolo [1,5-a]pyrimidine-2-carboxamide]
< 200	COc1ccc(-c2ccnc3cc(C(=O)Nc4ccc(C(=O)N5CCOCC5)c(F)c4)nn23)cc1OC [Compound 174, 7-(3,4-dimethoxyphenyl)-N-(3-fluoro-4-(morpholine-4-carbonyl)phenyl)pyrazolo[1,5-a]pyrimidine-2-carboxamide]
< 200	COc1ccc(-c2ccnc3cc(C(=O)Nc4ccc(C(=O)N5CCN(C)CC5)c(F)c4)nn23)cc1OC [Compound 175, 7-(3,4-dimethoxyphenyl)-N-(3-fluoro-4-(4-methylpiperazine-1-carbonyl)phenyl)pyrazolo [1,5-a]pyrimidine-2-carboxamide]
≥ 2000	COc1ccc(-c2ccnc3cc(C(=O)Nc4ccc(C(=O)NCCCN5CCN(C)CC5)cc4)nn23)cc1OC [Compound 177, 7-(3,4-dimethoxyphenyl)-N-(4-((3-(4-methylpiperazin-1-yl)propyl)carbamoyl)phenyl)pyrazolo[1,5-a]pyrimidine-2-carboxamide]
≥ 2000	COc1ccc(-c2ccnc3cc(C(=O)N4CCN(C(C)C)CC4)nn23)cc1OC [Compound 179, (7-(3,4-dimethoxyphenyl)pyrazolo[1,5-a]pyrimidin-2-yl)(4-isopropylpiperazin-1-yl)methanone]
≥ 2000	COc1ccc(-c2ccnc3cc(C(=O)N4CCNC(=O)C4)nn23)cc1OC [Compound 180, 4-(7-(3,4-dimethoxyphenyl)pyrazolo[1,5-a]pyrimidine-2-carbonyl) piperazin-2-one]
≥ 2000	COc1ccc(-c2ccnc3cc(C(=O)N4CCN[C@@H](C)C4)nn23)cc1OC [Compound 181, (S)-(7-(3,4-dimethoxyphenyl)pyrazolo[1,5-a]pyrimidin-2-yl)(3-methylpiperazin-1-yl)methanone]

EC50 [nM]	Compound
≥ 2000	COc1ccc(-c2ccnc3cc(C(=O)N4CCNC(C)(C)C4)nn23)cc1OC [Compound 182, (7-(3,4-dimethoxyphenyl)pyrazolo[1,5-a]pyrimidin-2-yl)(3,3-dimethylpiperazin-1-yl)methanone]
200 to 2000	COC(=O)c1ccc(N(C)C(=O)c2cc3nccc(-c4ccc(OC)c(OC)c4)n3n2)cc1 [Compound 183, methyl 4-(7-(3,4-dimethoxyphenyl)-N-methylpyrazolo[1,5-a]pyrimidine-2-carboxamido)benzoate]
200 to 2000	COc1ccc(-c2ccnc3cc(C(=O)N4CCN(C5CC5)CC4)nn23)cc1OC [Compound 184, (4-cyclopropylpiperazin-1-yl)(7-(3,4-dimethoxyphenyl)pyrazolo [1,5-a]pyrimidin-2-yl)methanone]
200 to 2000	COc1ccc(-c2ccnc3cc(C(=O)N4CCN(c5ncccn5)CC4)nn23)cc1OC [Compound 185, (7-(3,4-dimethoxyphenyl)pyrazolo[1,5-a]pyrimidin-2-yl)(4-(pyrimidin-2-yl)piperazin-1-yl)methanone]
≥ 2000	COc1ccc(-c2ccnc3cc(C(=O)N4CC[C@@H](NC(=O)C5CCN(C)CC5)C4)nn23)cc1OC [Compound 188, (R)-N-(1-(7-(3,4-dimethoxyphenyl)pyrazolo [1,5-a]pyrimidine-2-carbonyl)pyrrolidin-3-yl)-1-methylpiperidine-4-carboxamide]
< 200	COc1ccc(-c2ccnc3cc(C(=O)Nc4ccc(C(=O)OCCCN5CCN(C)CC5)cn4)nn23)cc1OC [Compound 189, 3-(4-methylpiperazin-1-yl) propyl 6-(7-(3,4-dimethoxyphenyl)pyrazolo [1,5-a]pyrimidine-2-carboxamido)nicotinate]
200 to 2000	COC(=O)c1ccc(NC(=O)c2cc3nccc(-c4ccc(OC)c(OC)c4)n3n2)cn1 [Compound 190, methyl 5-(7-(3,4-dimethoxyphenyl)pyrazolo [1,5-a]pyrimidine-2-carboxamido)picolinate]
< 200	COC(=O)c1ccc(NC(=O)c2cc3nccc(-c4ccc(OC)c(OC)c4)n3n2)cc1C [Compound 191, methyl 4-(7-(3,4-dimethoxyphenyl)pyrazolo [1,5-a]pyrimidine-2-carboxamido)-2-methylbenzoate]
< 200	COc1ccc(-c2ccnc3cc(C(=O)Nc4ccc(N5CCN(C)CC5)cc4)nn23)cc1OC [Compound 193, 7-(3,4-dimethoxyphenyl)-N-(4-(4-methylpiperazin-1-yl)phenyl)pyrazolo[1,5-a]pyrimidine-2-carboxamide]
200 to 2000	COc1ccc(-c2ccnc3cc(C(=O)Nc4ccc(C(=O)N5CCN(C)[C@@H](C)C5)cc4)nn23)cc1OC [Compound 195, (S)-7-(3,4-dimethoxyphenyl)-N-(4-(3,4-dimethylpiperazine-1-carbonyl)phenyl)pyrazolo [1,5-a]pyrimidine-2-carboxamide]
200 to 2000	COc1ccc(-c2ccnc3cc(C(=O)N[C@H]4CC[C@@H](C(=O)OCCCN5CCOCC5)CC4)nn23)cc1OC [Compound 196, 3-morpholinopropyl (1s,4s)-4-(7-(3,4-dimethoxyphenyl)pyrazolo [1,5-a]pyrimidine-2-carboxamido)cyclohexane-1-carboxylate]
200 to 2000	COc1ccc(-c2ccnc3cc(C(=O)NC45CC(C(=O)OCCCN6CCOCC6)(C4)C5)nn23)cc1OC [Compound 199, 3-morpholinopropyl 3-(7-(3,4-dimethoxyphenyl)pyrazolo [1,5-a]pyrimidine-2-carboxamido)bicyclo[1.1.1] pentane-1-carboxylate]
≥ 2000	COc1ccc(-c2ccnc3cc(C(=O)N[C@H]4CC[C@H](C(=O)NCCN5CCOCC5)CC4)nn23)cc1OC [Compound 202, 7-(3,4-dimethoxyphenyl)-N-((1r,4r)-4-((2-morpholinoethyl)carbamoyl)cyclohexyl)pyrazolo [1,5-a]pyrimidine-2-carboxamide]
≥ 2000	COc1ccc(-c2ccnc3cc(C(=O)N[C@H]4CC[C@H](C(=O)NCCCN5CCOCC5)CC4)nn23)cc1OC [Compound 203, 7-(3,4-dimethoxyphenyl)-N-((1r,4r)-4-((3-morpholinopropyl)carbamoyl)cyclohexyl) pyrazolo[1,5-a]pyrimidine-2-carboxamide]
200 to 2000	COc1ccc(-c2ccnc3cc(C(=O)N4CCN(Cc5ccccc5)[C@@H](C)C4)nn23)cc1OC [Compound 206, (S)-(4-benzyl-3-methylpiperazin-1-yl) (7-(3,4-dimethoxyphenyl)pyrazolo [1,5-a]pyrimidin-2-yl)methanone]
